Data as given in US7704995B2 (Exelixis, Inc., priority 2003, dated 2010).

Biological target: T1, Chk1 (Homo sapiens, UniProt O14757)
T1 construct: purchased Upstate Biotechnology
T1 sequence (O14757 1-476): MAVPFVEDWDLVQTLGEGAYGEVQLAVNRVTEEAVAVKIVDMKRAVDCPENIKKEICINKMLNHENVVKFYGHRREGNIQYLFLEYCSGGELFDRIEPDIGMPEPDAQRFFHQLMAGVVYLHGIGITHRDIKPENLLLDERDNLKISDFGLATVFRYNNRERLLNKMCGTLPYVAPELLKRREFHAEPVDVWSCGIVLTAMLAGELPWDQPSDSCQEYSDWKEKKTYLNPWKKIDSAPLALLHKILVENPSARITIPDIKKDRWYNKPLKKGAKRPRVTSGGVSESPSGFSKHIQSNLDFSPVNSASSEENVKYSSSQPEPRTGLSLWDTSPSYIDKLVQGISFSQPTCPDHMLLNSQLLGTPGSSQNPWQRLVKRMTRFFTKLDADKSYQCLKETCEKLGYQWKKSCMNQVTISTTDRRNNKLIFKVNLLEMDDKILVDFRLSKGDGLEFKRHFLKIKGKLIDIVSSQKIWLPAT
Test: Chk1 kinase assay: incorporation of γ-33P ATP into immobilized myelin basic protein
Type: biochemical
Conditions: Table 11, Chk1 only; class symbols A-D; read-out: Chk1 IC50
Procedure, shortened: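 Chk1 (10 nM) or Chk2 (20 nM) phosphorylated plate-immobilized myelin basic protein for 1 h at room temperature in Hepes pH 7.6 buffer with MgCl2, DTT, 1% DMSO, γ-33P ATP plus 10 μM (Chk1) or 30 μM (Chk2) unlabeled ATP. Bound radioactivity counted by scintillation; IC50 determined, Ki derivable from IC50.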

| IC50 | Structure (SMILES) |
| --- | --- |
| < 50 nM | Cc1cccc(-c2cnc(N)c(C(=O)N[C@H]3CCCCNC3)n2)c1 [Example 974, 3-amino-N-[(3S)-azepan-3-yl]-6-(3-methylphenyl)pyrazine-2-carboxamide] |
| < 50 nM | Nc1ncc(-c2cccc(C(=O)NCc3ccc(Cl)c(Cl)c3)c2)nc1C(=O)N[C@H]1CCCNC1 [Example 985, 3-amino-6-[3-({[(3,4-dichlorophenyl)methyl]amino}carbonyl)phenyl]-N-[(3S)-piperidin-3-yl]pyrazine-2-carboxamide] |
| < 50 nM | CCOc1cccc(-c2cnc(N)c(C(=O)N[C@H]3CCCNC3)n2)c1 [Example 962, 3-amino-6-[3-(ethyloxy)phenyl]-N-[(3S)-piperidin-3-yl]pyrazine-2-carboxamide] |

Same assay, conditions: Table 11; Chk1 only; read-out: Chk1 IC50

| IC50 | Structure (SMILES) |
| --- | --- |
| 1000 to 10000 nM | Nc1ncc(-c2cccc(CN[C@H]3CCc4ccccc43)c2)nc1C(=O)NCCN1CCCCC1 [Example 541, 3-amino-6-(3-{[(1S)-2,3-dihydro-1H-inden-1-ylamino]methyl}phenyl)-N-(2-piperidin-1-ylethyl)pyrazine-2-carboxamide] |
| < 50 nM | CNC(=O)c1nc(-c2cccc(CN[C@H]3CCc4cc(-c5cccs5)ccc43)c2)cnc1N [Example 490, 3-amino-N-methyl-6-[3-({[(1S)-5-(2-thienyl)-2,3-dihydro-1H-inden-1-yl]amino}methyl)phenyl]pyrazine-2-carboxamide] |
| < 50 nM | CNC(=O)c1nc(-c2cccc(CNCc3ccc(-c4ccco4)cc3F)c2)cnc1N [Example 451, 3-amino-6-[3-({[(2-fluoro-4-furan-2-ylphenyl)methyl]amino}methyl)phenyl]-N-methylpyrazine-2-carboxamide] |
| 1000 to 10000 nM | N=C(NNc1nccc(C(F)(F)F)n1)c1nc(-c2cccc(C(=O)NCc3ccccc3)c2)cnc1N [Example 668, 3-[5-amino-6-(imino{2-[4-(trifluoromethyl)pyrimidin-2-yl]hydrazino}methyl)pyrazin-2-yl]-N-(phenylmethyl)benzamide] |
| 50 to 1000 nM | NC(=O)c1nc(-c2cccc(C(=O)NCc3ccccc3)c2)cnc1N [Example 667, 3-amino-6-(3-{[(phenylmethyl)amino]carbonyl}phenyl)pyrazine-2-carboxamide] |

Same assay, conditions: read-out: Chk1 IC50

| IC50 | Structure (SMILES) |
| --- | --- |
| < 50 nM | CNC(=O)c1nc(-c2cccc(C(=O)NCc3ccccc3SC)c2)cnc1N [Example 356, 3-amino-N-methyl-6-{3-[({[2-(methylthio)phenyl]methyl}amino)carbonyl]phenyl}pyrazine-2-carboxamide] |
| 50 to 1000 nM | CNC(=O)c1nc(-c2cccc(C(=O)NCc3cc(Cl)cc(Cl)c3)c2)cnc1N [Example 276, 3-amino-6-[3-({[(3,5-dichlorophenyl)methyl]amino}carbonyl)phenyl]-N-methylpyrazine-2-carboxamide] |
| < 50 nM | CNC(=O)c1nc(-c2cccc(C(=O)NCc3ccc(Cl)cc3F)c2)cnc1N [Example 275, 3-amino-6-[3-({[(4-chloro-2-fluorophenyl)methyl]amino}carbonyl)phenyl]-N-methylpyrazine-2-carboxamide] |
| 50 to 1000 nM | CNC(=O)c1nc(-c2cccc(C(=O)NCC3CN(Cc4ccccc4)CCO3)c2)cnc1N (stereo not drawn) [Example 204, 3-amino-N-methyl-6-{3-[({[4-(phenylmethyl)morpholin-2-yl]methyl}amino)carbonyl]phenyl}pyrazine-2-carboxamide] |
